From article PMC10187093, “Synthesis, in silico modelling, and in vitro biological evaluation of substituted pyrazole derivatives as potential anti-skin cancer, anti-tyrosinase, and antioxidant agents” (Journal of Enzyme Inhibition and Medicinal Chemistry, 2023)

Experiments:
mushroom tyrosinase = molecular target: T1, mushroom tyrosinase (Agaricus bisporus, UniProt C7FF04); experiment: In vitro mushroom tyrosinase inhibition assay; format: biochemical
T1 construct: purchased Sigma-Aldrich Chemical Company (St. Louis, MO) and MP Biomedicals (Irvine, CA)
Protocol: The anti-tyrosinase potential of all the synthesised derivatives was determined by an enzymatic tyrosinase inhibition assay based on their ability to inhibit the substrate, L-tyrosine, from binding to the tyrosinase enzyme. […] Test samples were dissolved in DMSO at a concentration of 10 mM and then diluted to different concentrations with phosphate buffer (0.1 M, pH 6.8). Each well contained 40 µL of the sample with 80 µL of phosphate buffer solution (0.1 M, pH 6.8), 40 µL of tyrosinase enzyme (100 units/mL), and 40 µL L-tyrosine (2.5 mM). The mixture was incubated for 30 min at room temperature, and absorbance was measured at 490 nm. Each sample was accompanied by a sample blank containing all components except tyrosinase. […] The percentage of tyrosinase inhibition was calculated as follows: ((ΔAcontrol – ΔAsample)/ΔAcontrol) × 100. IC50 values denoted the sample concentration required to inhibit 50% tyrosinase activity (Table S1).

SK-MEL-28 [1] = experiment: Colony formation assay, SK-MEL-28; format: cell-based, human; settings: 0, ½IC50, IC50, 1½IC50; 14 days; vs untreated control
Protocol: (§1) Cells were then trypsinised, and 1000 viable cells from each treated group were seeded on […] in 10 mL of the medium, and incubated for an additional 14 days before fixation and crystal violet staining, imaging, and colonies assessment as previously described[109]^,[116]. The plates were scanned, and the area of clones was quantified with the free software Image J (Bethesda, MD) (https://imagej.nih.gov/ij/).

GFP-A431 = experiment: MTT antiproliferative/cytotoxicity assay, A431; format: cell-based, human; settings: Homo sapiens, A-431, 48 h, non-melanoma, MTT, 48 h; read-out: IC50 GFP-A431
Protocol: Human-derived GFP-expressing melanoma A375 and epidermoid carcinoma A431 cell lines were purchased from Angio-Proteomie (Boston, MA). Human melanoma carcinoma SK-MEL-28 and human immortalised keratinocytes (HaCaT) cell lines were acquired from American Type Culture Collection (ATCC; Manassas, VA). […] The growth media of incubated cells were changed every 2–3 days until they attained 70–80% confluence, after which they were sub-cultured for experiments and re-passaging. DMSO was used as the vehicle to prepare a 10 mM stock solution of the test compounds.
Stock solutions (10 mM) were prepared by dissolving each compound to be screened in DMSO.

A431 [2] = experiment: Immunoblotting of apoptosis markers, A431; format: cell-based, human; settings: western blot, 48 h, vs untreated
Protocol: Immunoblotting was performed according to standard procedures of the Bio-Rad electrophoresis system (Bio-Rad, Hercules, CA) as described earlier. Briefly, protein extracts were obtained by lysing cells in RIPA buffer containing protease inhibitors, and were resolved by 4–12% polyacrylamide ready mini-PROTEAN TGX gel electrophoresis with sodium dodecyl sulphate (SDS) running buffer. Gels were electrotransferred to 0.45 μm nitrocellulose membranes (Bio-Rad, Hercules, CA) in Tris-glycine (TG) buffer using a Trans-Blot Turbo Transfer Pack according to manufacturer’s instructions. Membranes were incubated for 1 h in 5–7% non-fat powdered milk dissolved in TBST (Tris-buffered saline containing 0.05% Tween 20) or 5% BSA for phosphorylated proteins, to saturate nonspecific binding sites, followed by an overnight incubation (4 °C) with primary antibodies. Membranes were washed 5× with TBST and treated with suitable HRP-conjugated secondary antibodies (Amersham Life Science Inc., Arlington Height, IL) for another 2 h at room temperature, followed by additional wash steps and chemiluminescence-based detection with the Amersham ECL Prime detection reagent kit and the Bio-Rad Quantity One ChemiDoc™ detection and imaging analysis software systems as described earlier[108]^,[109].

HaCaT = experiment: MTT cytotoxicity assay, noncancerous HaCaT keratinocytes; format: cell-based, human; settings: Homo sapiens, HaCaT; control noncancerous keratinocytes, MTT, 48 h; read-out: IC50 HaCaT
Protocol: (§2) Human-derived GFP-expressing melanoma A375 and epidermoid carcinoma A431 cell lines were purchased from Angio-Proteomie (Boston, MA). Human melanoma carcinoma SK-MEL-28 and human immortalised keratinocytes (HaCaT) cell lines were acquired from American Type Culture Collection (ATCC; Manassas, VA). Human cutaneous SCC cell line SCC-12[192] was generously provided by Dr. James G. Rheinwald to Dr. Tatiana Efimova. Except SK-MEL-28, which was cultured in an RPMI-1640 medium supplemented with 5% FBS, all other human immortalised cell lines were grown and maintained in DMEM containing varying percentages of FBS; 5% FBS for A431, SCC-12, and HaCaT lines, and 10% FBS for A375. All culture media were routinely supplemented with 1% PEST 100X (100 U/mL penicillin, 100 μg/mL streptomycin), and cells were cultured in incubators maintained at 37 °C under an atmosphere of 95% humidity, 20% O2, and 5% CO2. The growth media of incubated cells were changed every 2–3 days until they attained 70–80% confluence, after which they were sub-cultured for experiments and re-passaging. DMSO was used as the vehicle to prepare a 10 mM stock solution of the test compounds.
(§3) Stock solutions (10 mM) were prepared by dissolving each compound to be screened in DMSO. From these stock solutions, escalating concentrations were prepared using the corresponding cell growth media as a diluent, and the cells (65–75% confluent) were treated with (0–40 µM) or without the drug in sext- to octuplicate and incubated for 48 h. All treatment protocols and controls were prepared as previously described.
(§4) The potency and cytotoxicity of the test compounds against two cutaneous melanoma (A375 and SK-MEL-28) and two non-melanoma (A431 and SCC-12) SC cell lines in addition to a control immortalised normal human epidermal keratinocytes (HaCaT) cell line were assessed by MTT assay as previously described.

SK-MEL-28 [3] = experiment: MTT antiproliferative/cytotoxicity assay, SK-MEL-28; format: cell-based, human; settings: Homo sapiens, SK-MEL-28, 48 h, melanoma, MTT, 48 h; read-out: IC50 SKMEL-28
Protocol: as §2, §3, §4

A431 [4] = experiment: Colony formation assay, A431; format: cell-based, human; settings: 0, ½IC50, IC50, 1½IC50; 14 days; vs untreated control
Protocol: as §1

T1 sequence (C7FF04 1-392 limits assumed): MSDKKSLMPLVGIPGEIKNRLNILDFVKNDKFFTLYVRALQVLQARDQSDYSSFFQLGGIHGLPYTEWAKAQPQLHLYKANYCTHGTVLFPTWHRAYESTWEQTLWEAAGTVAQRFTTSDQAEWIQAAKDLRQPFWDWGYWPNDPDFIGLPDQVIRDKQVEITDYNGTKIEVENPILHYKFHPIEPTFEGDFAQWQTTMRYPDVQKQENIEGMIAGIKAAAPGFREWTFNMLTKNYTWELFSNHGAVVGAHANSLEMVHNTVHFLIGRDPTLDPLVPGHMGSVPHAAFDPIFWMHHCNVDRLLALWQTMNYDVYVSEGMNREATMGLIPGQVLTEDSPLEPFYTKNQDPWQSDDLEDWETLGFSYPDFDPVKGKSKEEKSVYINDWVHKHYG

With O=C1CC(c2ccccc2)=NN1c1ccc(Br)cc1 [P25] the inhibition at 500 µM (mushroom tyrosinase; 500 µM, single-concentration screen, read-out: % Inhibition of tyrosinase) was 21.9%, the IC50 (mushroom tyrosinase; > 500 = not biologically relevant, read-out: IC50 Value, mushroom tyrosinase inhibition (Table S1)) was > 500 µM and the “colony formation, SK-MEL-28” value (SK-MEL-28 [1]) was “significant concentration-dependent reductions in the relative percentage of colonies formed”. The IC50 (GFP-A431) was 3.7 ± 0.5 µM, the “activated caspase-3, caspase-9 and cleaved PARP levels, A431” value (A431 [2]; concentration-dependent) was “substantially increased levels” and the “anti-apoptotic Bcl-2 protein levels, A431” value (A431 [2]) was “corresponding decreases”. The “pro-apoptotic Bax expression, A431” value (A431 [2]) was “dose-dependent amplified expression”, the IC50 (HaCaT) was 30.5 ± 2 µM and the IC50 (SK-MEL-28 [3]) was 7.6 ± 0.6 µM. The “colony formation, A431” value (A431 [4]) was “significant concentration-dependent reductions in the relative percentage of colonies formed”.
